How the values were obtained:
Mus musculus [1] = experiment: Antitumor activity is evaluated as the percent increase in lifespan of TLX/5 tumor bearing animals at 100 mg/kg, daily x 5; type: functional
Mus musculus [2] = experiment: Antitumor activity is evaluated as the percent increase in lifespan of TLX/5 tumor bearing animals at 12.5 mg/kg, daily x 5; type: functional
Mus musculus [3] = experiment: Antitumor activity is evaluated as the percent increase in lifespan of TLX/5 tumor bearing animals at 200 mg/kg, daily x 5; type: functional
Mus musculus [4] = experiment: Antitumor activity is evaluated as the percent increase in lifespan of TLX/5 tumor bearing animals at 25 mg/kg, daily x 5; type: functional
Mus musculus [5] = experiment: Antitumor activity is evaluated as the percent increase in lifespan of TLX/5 tumor bearing animals at 400 mg/kg, daily x 5; type: functional
Mus musculus [6] = experiment: Antitumor activity is evaluated as the percent increase in lifespan of TLX/5 tumor bearing animals at 50 mg/kg, daily x 5; type: functional
Mus musculus [7] = species: Mus musculus; experiment: (§1) Compound is evaluated in vitro for percent metabolism by mouse liver microsomes; type: functional; set-up: concentration or dose not given beside the values
Mus musculus [8] = species: Mus musculus; experiment: (§2) Compound is evaluated in vitro for percent dealkylation by mouse liver microsomes; type: functional; set-up: concentration or dose not given beside the values
Mus musculus [9] = species: Mus musculus; experiment: Compound is evaluated in vitro for percent demethylation by mouse liver microsomes; type: functional
Mus musculus [10] = species: Mus musculus; experiment: Compound is evaluated for maximum percentage of increase in life span (ILS) in tumor bearing mice
[11] = Partition coefficient (logP); type: physicochemical; settings: octanol/water
Mus musculus [12] = species: Mus musculus; experiment: as §2; type: functional
Mus musculus [13] = species: Mus musculus; experiment: as §1; type: functional

logP ([11]; read-out: logP)	logP [11]	Structure (SMILES)	Increase (Mus musculus [1]) [%]	Increase (Mus musculus [2]) [%]	Increase (Mus musculus [3]) [%]	Increase (Mus musculus [4]) [%]	Increase (Mus musculus [5]) [%]	Increase (Mus musculus [6]) [%]	Activity (Mus musculus [7]) [%]	Activity (Mus musculus [8]) [%]	Activity (Mus musculus [9]) [%]	max % ILS per µmol/kg (Mus musculus [10]) [%·kg/µmol]	Activity (Mus musculus [12]) [%]	Activity (Mus musculus [13]) [%]
		CN(C)/N=N/c1ccc(C(N)=O)cc1	51	94	-7	47	-26	65	57.3	1.8	55.5	1.45		
0.34		CC(C)N(C)/N=N/c1ccc(C(=O)O)cc1												
		CON(C)/N=N/c1ccc(C(N)=O)cc1	-3	-3	-7	-3	-3	-5						
0.32		C=CCN(C)/N=N/c1ccc(C(=O)O)cc1												
		CCN(CC)/N=N/c1ccc(C(N)=O)cc1							53.3	53.3	0			
0.97		CCCCN(C)/N=N/c1ccc(C(=O)O)cc1												
		CN(CCO)/N=N/c1ccc(C(N)=O)cc1	7	1	42	0	38	5				0.047		
		CCCN(C)/N=N/c1ccc(C(N)=O)cc1	41	7	20	113	-45	60	58.3	33	25.3	0.996		
0.46		CCCN(C)/N=N/c1ccc(C(=O)O)cc1												
0		C#CCN(C)/N=N/c1ccc(C(=O)O)cc1												
		CN(Cc1ccccc1)/N=N/c1ccc(C(N)=O)cc1	9	-3	86	-1	-36	3				0.145		
	-0.44	CN(C)/N=N/c1ccc(C(=O)O)cc1												
1.95		CCCCCCN(C)/N=N/c1ccc(C(=O)O)cc1												
1.49		CCCCCN(C)/N=N/c1ccc(C(=O)O)cc1												
		CN(O)/N=N/c1ccc(C(N)=O)cc1	19		37		55	19				0.036		
		CN(/N=N/c1ccc(C(N)=O)cc1)C(C)(C)C	0	4	0	-4		-2						
1.33		CCC(C)CN(C)/N=N/c1ccc(C(=O)O)cc1 (stereo not drawn)												
		CCCCCCN(C)/N=N/c1ccc(C(N)=O)cc1	83	4	56	9	30	11	27	14	13	0.218		
2.58		CCCCCCCN(C)/N=N/c1ccc(C(=O)O)cc1												
		CCCCCCCCCCCCN(C)/N=N/c1ccc(C(N)=O)cc1	-1	1	13	3	9	3				0.023		
2.77		CCCCCCCCN(C)/N=N/c1ccc(C(=O)O)cc1												
		CCCCCCCN(C)/N=N/c1ccc(C(N)=O)cc1	65	2	15	6	-20	15			11	0.18	12	23
0.04		CCN(C)/N=N/c1ccc(C(=O)O)cc1												
		CCCCCN(C)/N=N/c1ccc(C(N)=O)cc1	71	3	-28	7	-51	79	41.5	23.5	18	0.392		

Structure (SMILES)	logP ([11]; read-out: logP)	logP [11]	Increase (Mus musculus [1]) [%]	Increase (Mus musculus [2]) [%]	Increase (Mus musculus [3]) [%]	Increase (Mus musculus [4]) [%]	Increase (Mus musculus [5]) [%]	Increase (Mus musculus [6]) [%]	Activity (Mus musculus [7]) [%]	Activity (Mus musculus [8]) [%]	Activity (Mus musculus [9]) [%]	max % ILS per µmol/kg (Mus musculus [10]) [%·kg/µmol]	Activity (Mus musculus [12]) [%]	Activity (Mus musculus [13]) [%]
CCCCCCCCN(C)/N=N/c1ccc(C(N)=O)cc1	4.7		19	-2	112	4	56	4	19.5	8	11.5	0.163		
CCN(C)/N=N/c1ccc(C(N)=O)cc1	1.7		76	7	-31	84	-49	100	61.8	33.7	28.2	0.693		
CC(C)N(C)/N=N/c1ccc(C(N)=O)cc1	2		41	21	-10	52	-60	45				0.458		
CCCCN(C)/N=N/c1ccc(C(N)=O)cc1	2.46		83	18	-12	23	-51	91	55	33.5	21.5	0.426		

— ChEMBL document CHEMBL1122746, “Tumor inhibitory triazenes. 3. Dealkylation within an homologous series and its relation to antitumor activity” (J Med Chem, 1984)
